Experimental data reported in publication PMC6332029, “Mimosine Dipeptide Enantiomsers: Improved Inhibitors against Melanogenesis and Cyclooxygenase” (Molecules, 2015).
Several values for one entry are separate records, joined by “and”; a condition that tells them apart may be missing. Equal values may be shown once. Read-outs that look alike come from different tables or passages of the source.

Tests used:
mushroom tyrosinase [1] = assay: Mushroom tyrosinase inhibition microplate assay (L-tyrosine substrate); assay type: biochemical; conditions: L-tyrosine as substrate; mean ± SE
Experimental: (§1) A microplate assay was used to assess tyrosinase inhibition, as previously described. Samples (20 μL) with various concentrations were transferred into each well of 96-well plate, and 120 μL of 20 mM sodium phosphate buffer (pH 6.8), 20 μL of 500 U/mL mushroom tyrosinase enzyme dissolved in buffer were added. […] The absorbance was recorded at 470 nm using a microplate reader (Benchmark plus, Biorad, Herfordshire, UK). […] For the kinetic studies of selected inhibitors, we used a range of L-tyrosine concentrations for each inhibitor concentration. Preincubation and measurement times were the same as above. Lineweaver-Burk plots were used to determine the type of enzyme inhibition, and the inhibition constant Ki was determined by plotting Km/Vmax versus the inhibitor concentration. Percent inhibition was calculated using the following equation: Inhibition (%) = ([CE − Co] − [SE − So])/(CE − Co) × 100 (1) where CE is the absorbance of the control samples with enzyme, Co is the absorbance of the control samples without enzyme, SE is the absorbance of the tested sample with enzyme, and So is the absorbance of the tested sample without enzyme.

B16F10 melanoma cells = assay: Determination of melanin content in B16F10 cells; assay type: cell-based, Mouse; conditions: read-out: IC50 for Melanin Content Inhibition
Experimental: (§2) Mouse B16F10 cell line was obtained from American Type Culture Collection (Manassas, VA, USA). Cells were cultured in Dulbecco’s modified minimum essential medium (D-MEM) medium containing 10% fetal bovine serum (FBS), 1% penicillin/streptomycin in a humidified atmosphere with 5% CO2 incubator at 37 °C.
The assay was performed following previously described procedure. Cells (5 × 10^3 cells/well) were seeded in a 96-well plate and cultured for 24 h. Compounds (10–500 μM) were added and incubated at 37 °C for 48 h. The medium was replaced by a fresh medium containing the same concentration of compound and the cells were incubated for 48 h. The medium was removed and the cells were dissolved in 100 μL of 1 N NaOH. The reaction was heated at 90 °C for 1 h. Melanin content was estimated by the absorbance at 400 nm.

[2] = tested on: intracellular tyrosinase in B16F10 melanoma cells; assay: Intracellular tyrosinase inhibition assay; assay type: cell-based, Mouse; conditions: L-DOPA substrate, mean ± SE, read-out: IC50 for Cellular Tyrosinase Inhibition
Experimental: as §2
Cells were seeded in a 96-well plate at a density 5 × 10^3 cells/well and the compounds (10–500 μM) were added after 24 h treatment. Cells were incubated for 48 h, washed two times with 50 mM of ice-cold phosphate buffer (pH 6.8), lysed with 90 μL of 50 mM phosphate buffer (pH 6.8) containing 1% Triton-X, and frozen at −80 °C for 30 min. After thawing and mixing, 20 μL of 0.5% L-DOPA was added to each well. The mixture was incubated for 2 h at 37 °C and absorbance was measured at 490 nm.

COX-1 = molecular target: T1, COX-1 (Ovis aries, UniProt P05979); assay: Colorimetric COX (ovine) inhibitor screening assay, COX-1; assay type: biochemical; conditions: ovine COX-1, colorimetric kit; mean ± SE
T1 construct: purchased Cayman Chemical, Ann Arbor, Michigan, USA
T1 sequence (P05979 25-600): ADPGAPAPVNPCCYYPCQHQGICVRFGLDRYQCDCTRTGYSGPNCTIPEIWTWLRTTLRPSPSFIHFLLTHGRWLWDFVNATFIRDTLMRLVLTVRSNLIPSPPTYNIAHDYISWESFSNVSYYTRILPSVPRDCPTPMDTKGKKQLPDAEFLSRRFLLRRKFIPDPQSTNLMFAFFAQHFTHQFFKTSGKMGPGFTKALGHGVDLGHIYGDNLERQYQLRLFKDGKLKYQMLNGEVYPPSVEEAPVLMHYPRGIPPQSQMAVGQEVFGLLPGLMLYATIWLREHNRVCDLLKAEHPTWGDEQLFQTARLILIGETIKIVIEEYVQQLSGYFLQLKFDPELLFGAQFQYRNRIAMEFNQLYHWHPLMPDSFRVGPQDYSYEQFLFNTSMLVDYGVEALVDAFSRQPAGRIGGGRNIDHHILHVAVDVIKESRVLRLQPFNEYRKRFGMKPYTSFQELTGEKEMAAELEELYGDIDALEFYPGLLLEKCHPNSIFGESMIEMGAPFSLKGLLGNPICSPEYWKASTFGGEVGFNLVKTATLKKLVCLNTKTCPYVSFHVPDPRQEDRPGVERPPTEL
Experimental: (§3) Inhibition of COX activity was measured using a colorimetric COX (ovine) inhibitor screening assay kit (Cayman Chemical, Ann Arbor, Michigan, USA). First, 150 μL of assay buffer (0.1 M Tris-HCl, pH 8.0), 10 μL of heme, and 10 μL of enzyme (COX-1 or COX-2) were added to an […] 96-well microtiter plate. Immediately, 10 μL of sample was added to inhibitor wells while 10 μL of solvent or buffer was added to control and background wells, respectively. […] The mixture was shaken for a few seconds and incubated for an additional 5 min at 25 °C. The absorbance was determined at 590 nm using a microplate reader (Benchmark plus, Biorad, Herfordshire, UK). […] The corrected absorbance of all the samples and controls was calculated by subtracting the absorbance of the background wells. The percentage of inhibition was calculated as follows: Inhibition (%) = (Ao − As)/Ao × 100 (2) where Ao and As are the absorbance of the corrected control and sample, respectively.

COX-2 [3] = molecular target: T2, COX-2 (Ovis aries, UniProt P79208); assay: Colorimetric COX (ovine) inhibitor screening assay, COX-2; assay type: biochemical; conditions: ovine COX-2, colorimetric kit; mean ± SE
T2 sequence (P79208 17-603): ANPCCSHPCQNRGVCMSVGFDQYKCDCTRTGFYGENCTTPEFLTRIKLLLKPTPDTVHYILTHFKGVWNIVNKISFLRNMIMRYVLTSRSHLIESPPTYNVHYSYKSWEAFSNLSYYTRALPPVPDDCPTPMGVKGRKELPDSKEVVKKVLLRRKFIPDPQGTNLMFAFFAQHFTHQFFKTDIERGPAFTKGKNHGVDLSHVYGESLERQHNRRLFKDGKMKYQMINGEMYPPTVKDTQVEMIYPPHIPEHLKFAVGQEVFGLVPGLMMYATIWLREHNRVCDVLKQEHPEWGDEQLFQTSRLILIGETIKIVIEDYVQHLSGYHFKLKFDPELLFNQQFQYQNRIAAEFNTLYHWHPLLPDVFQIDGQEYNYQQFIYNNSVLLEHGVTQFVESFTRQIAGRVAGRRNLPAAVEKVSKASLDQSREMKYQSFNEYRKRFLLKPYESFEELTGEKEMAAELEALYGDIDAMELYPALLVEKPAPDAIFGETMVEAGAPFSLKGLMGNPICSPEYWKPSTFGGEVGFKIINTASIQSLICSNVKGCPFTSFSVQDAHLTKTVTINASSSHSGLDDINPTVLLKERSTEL
Experimental: as §3

COX-2 [4] = assay: as above; assay type: biochemical; conditions: ratio of COX-1 IC50 to COX-2 IC50
Experimental: as §3

mushroom tyrosinase [5] = assay: Kinetic analysis of tyrosinase inhibition (Lineweaver-Burk plots); assay type: biochemical; conditions: substrate L-tyrosine; for Inhibition Type: Lineweaver-Burk plots, inhibitor 0, 5, 15 μM; for Ki: plot of Km/Vmax versus inhibitor concentration, read-out: Inhibition Constant (Ki)
Experimental: Tyrosinase activity was assayed as described in the text.
as §1

mushroom tyrosinase [6] = tested on: mushroom tyrosinase; parameters: method as in doi:10.1016/S0031-9422(00)82317-1; conditions: cited from earlier work
[7] = Mus musculus, B16-F10, mean ± SE

Structure (SMILES) | IC50 (mushroom tyrosinase [1]) | IC50 (B16F10 melanoma cells; [7]) [µM] | IC50 ([2]; Mus musculus, B16-F10, 48 h) [µM] | IC50 (COX-1) | IC50 (COX-2 [3]) | SI COX-1/COX-2 (selectivity index, COX-1 IC50/COX-2 IC50) (COX-2 [4]) | Inhibition Type (mushroom tyrosinase [5]) | Ki (mushroom tyrosinase [5]) [µM] | IC50 (B16F10 melanoma cells; mean ± SE) [µM] | IC50 ([2]; 48 h) [µM] | Inhibition type of tyrosinase (mushroom tyrosinase [6])
C[C@@H](NC(=O)[C@@H](N)Cn1ccc(=O)c(O)c1)C(=O)O [Mi-D-Ala] | 17.7 ± 3.1 µM | 199 ± 5.2 | 181 ± 6.8 | 19.1 ± 1 µM | 198 ± 3.7 µM | 0.10 |  |  |  |  | 
N[C@@H](Cn1ccc(=O)c(O)c1)C(=O)N[C@H](Cc1ccccc1)C(=O)O [Mi-D-Phe] | 19.7 ± 0.8 µM | 168.4 ± 1.4 | 194 ± 6.2 |  |  |  |  |  |  |  | 
N[C@@H](Cn1ccc(=O)c(O)c1)C(=O)N1CCC[C@@H]1C(=O)O [Mi-D-Pro] | 17.2 ± 2.1 µM | 123 ± 3 | 146 ± 5.2 | 21 ± 2 µM | 128 ± 7.7 µM | 0.15 |  |  |  |  | 
N[C@@H](Cn1ccc(=O)c(O)c1)C(=O)N[C@H](Cc1c[nH]c2ccccc12)C(=O)O [Mi-D-Trp] | 17 µM and 16.9 µM | 116 ± 4.9 | 150 ± 2.3 | 26.1 ± 1.3 µM | 27.5 ± 2.2 µM | 0.95 | competitive | 80 |  |  | 
CC(C)[C@@H](NC(=O)[C@@H](N)Cn1ccc(=O)c(O)c1)C(=O)O [Mi-D-Val] | 10 µM and 10.3 µM | 112 ± 8.1 | 162 ± 4.1 |  |  |  | competitive | 20 |  |  | 
C[C@H](NC(=O)[C@@H](N)Cn1ccc(=O)c(O)c1)C(=O)O [Mi-L-Ala] | 23.1 ± 2.2 µM | 128 ± 7.4 | 172 ± 4.6 |  |  |  |  |  |  |  | 
N[C@@H](Cn1ccc(=O)c(O)c1)C(=O)N[C@@H](Cc1ccccc1)C(=O)O [Mi-L-Phe] | 24.1 ± 3.8 µM | 121 ± 8.6 | 179.2 ± 1.3 |  |  |  |  |  |  |  | 
N[C@@H](Cn1ccc(=O)c(O)c1)C(=O)N1CCC[C@H]1C(=O)O [Mi-L-Pro] | 13 µM and 13.1 µM | 110 ± 5.3 | 167 ± 7.3 | 17.9 ± 2.1 µM | 29.3 ± 3 µM |  | competitive | 50 |  |  | 
N[C@@H](Cn1ccc(=O)c(O)c1)C(=O)N[C@@H](Cc1c[nH]c2ccccc12)C(=O)O [Mi-L-Trp] | 19.2 ± 1.5 µM | 109 ± 2.7 | 156 ± 8.3 | 20.4 ± 1.6 µM | 19 µM and 19.3 µM |  |  |  |  |  | 
CC(C)[C@H](NC(=O)[C@@H](N)Cn1ccc(=O)c(O)c1)C(=O)O [Mi-L-Val] | 12 µM and 11.5 µM | 170 ± 7.5 | 172 ± 6.5 | 24.4 ± 1.4 µM | 22 µM and 21.7 µM | 1.12 | competitive | 30 |  |  | 
N[C@@H](Cn1ccc(=O)c(O)c1)C(=O)O [Mimosine, β-[N-(3-hydroxy-4-oxypyridyl)]-α-aminopropionic acid] | 32.4 ± 1.1 µM | ~226 | ~388 | 29 µM and 28.8 µM | 21 µM and 20.9 µM | 1.38 |  |  | 226 ± 4 | 388 ± 7.2 | competitive
